Measurements reported in patent US20090176839A1, “FORMULATIONS OF 3-(6-(1-(2,2-DIFLUOROBENZO[D][1,3]DIOXOL-5-YL) CYCLOPROPANECARBOXAMIDO)-3-METHYLPYRIDIN-2-YL)BENZOIC ACID” (priority 2007, published 2009).
pIC50: −log10 of the molar value.

Assays:
[1] = Stability of 6 mg/mL aqueous methylcellulose suspension (HPLC, XRPD); type: physicochemical; details: room temperature; for Peak purity %: 6 mg/mL aqueous methylcellulose suspension
Experimental: A 100 mL stock solution of 0.5% by weight methylcellulose was prepared by stirring 0.5 g of methylcellulose with 99.5 g of purified water until completely dissolved (approximately 24 hours). […] The desired amount of 0.5% methylcellulose stock solution for making a 6 mg/mL based on free base (6.48 mg/mL based on HCl salt) was transferred into the vial and sonicated for 20 minutes and homogenized for approximately 5 minutes.
The methylcellulose formulation was also subjected to HPLC analysis at 0 and 24 hours: […]

in vivo [2] = details: male, beagle, dog, 200 mg/kg
[3] = Toxicokinetics in 14-day oral toxicity study in rats; details: rat, in vivo, 600 mg/kg/day
From the text: (§1) There were no major differences noted in TK parameters between males and females, or when comparing study Day 1 to study Day 14.

[4] = Pharmacokinetics in CD-1 mice; type: in vivo; details: mouse
Experimental: (§2) The pharmacokinetics of Compound 1 were assessed in the same species used in the toxicology studies: CD-1 mice, Sprague Dawley rats and beagle dogs. The pharmacokinetics of Compound 1 were also assessed in cynomolgus monkeys.

dogs = test: 14-day repeat-dose oral toxicity study in dogs
Experimental: (§4) Repeat-dose oral toxicity studies of 7- and 14-days duration have been conducted in rats (up to 600 mg/kg/day) and dogs (up to 200 mg/kg/day).

Solubility (statement) = type: physicochemical; details: aqueous medium
rats [5] = details: rat, in vivo, 14 days
Experimental: as §4

rats [6] = test: 14-day repeat-dose oral toxicity study in rats; details: assuming efficacious dose in rats 2.3 mg/kg b.i.d. (Ctrough at EC90)
Experimental: as §4

in vivo [7] = details: rat, po
Experimental: as §4

[8] = tested on: gastrointestinal, respiratory, CNS, or cardiovascular systems; test: Safety pharmacology studies (ICH S7A/S7B battery); type: in vivo, rat, dog
rats [9] = test: Acute oral toxicity study in rats; details: rats; single oral doses 500, 1000 or 2000 mg/kg
Experimental: (§3) The intended clinical route of administration is oral, thus oral toxicity studies were done in mice, rats and dogs. […] Effects of repeat oral dosing were assessed in rats and dogs in preliminary 7-day toxicity studies followed by a 14-day GLP1 toxicity studies.

[10] = Acute oral toxicity study in rats; details: rat, in vivo, po
Experimental: as §3

[11] = Toxicokinetics in 14-day oral toxicity study in dogs; details: dog, in vivo, 200 mg/kg/day
From the text: as §1

[12] = Pharmacokinetics in cynomolgus monkeys; type: in vivo; details: monkey
Experimental: as §2

TP receptor = target: T1, TP receptor (Rattus norvegicus, UniProt P34978); test: In vitro functional assay of TP receptor function using rat aorta; type: cell-based; details: read-out: IC50 (TP receptor antagonist)
T1 construct: In an in vitro functional assay of TP receptor function using rat aorta; from tissue; host or cells: rat aorta
T1 sequence (P34978 1-341): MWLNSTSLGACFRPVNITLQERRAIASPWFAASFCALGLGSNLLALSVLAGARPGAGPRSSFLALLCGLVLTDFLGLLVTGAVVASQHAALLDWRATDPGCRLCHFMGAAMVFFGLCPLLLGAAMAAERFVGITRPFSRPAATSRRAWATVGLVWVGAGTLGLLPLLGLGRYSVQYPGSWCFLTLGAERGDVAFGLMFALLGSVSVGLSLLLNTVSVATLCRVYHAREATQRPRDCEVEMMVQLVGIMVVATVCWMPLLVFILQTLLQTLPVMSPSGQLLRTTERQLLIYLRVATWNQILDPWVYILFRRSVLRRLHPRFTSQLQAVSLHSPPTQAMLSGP

Cc1ccc(NC(=O)C2(c3ccc4c(c3)OC(F)(F)O4)CC2)nc1-c1cccc(C(=O)O)c1 [Compound 1, 3-(6-(1-(2,2-difluorobenzo[d][1,3]dioxol-5-yl)cyclopropanecarboxamido)-3-methylpyridin-2-yl)benzoic acid]
Peak purity % ([1]; T(0)): 99.41% | Peak purity % ([1]; T(24 h)): 99.37% | physically and chemically stable, time ([1]; methylcellulose formulation): at least 24 hrs | AUC(0-inf) (in vivo [2]): 288 µg·h/mL | Cmax (in vivo [2]): 52 µg/mL | concentration at 48 hr (in vivo [2]): 0.063 µg/mL | Tmax (in vivo [2]; po): 1.7 h | half-life (in vivo [2]; po): 6.1 h | AUC(0-t) ([3]; both sexes, rats, at the NOAEL (600 mg/kg/day), read-out: average AUC0-24hr): 3950 µg·h/mL | Cmax ([3]; both sexes, rats, at the NOAEL (600 mg/kg/day), read-out: average Cmax): 222 µg/mL | Tmax ([3]; female, Sprague Dawley, Study Day 1, Female): 4 h | AUC(0-t) ([3]; female, Sprague Dawley, Study Day 1, Female, read-out: AUC0-24 hr): 4430 µg·h/mL | Cmax ([3]; female, Sprague Dawley, Study Day 1, Female, read-out: Cmax): 273 µg/mL | Tmax ([3]; female, Sprague Dawley, Study Day 14, Female): 10 h | AUC(0-t) ([3]; female, Sprague Dawley, Study Day 14, Female, read-out: AUC0-24 hr): 5500 µg·h/mL | Cmax ([3]; female, Sprague Dawley, Study Day 14, Female, read-out: Cmax): 272 µg/mL | Tmax ([3]; male, Sprague Dawley, Study Day 1, Male): 10 h | AUC(0-t) ([3]; male, Sprague Dawley, Study Day 1, Male, read-out: AUC0-24 hr): 2660 µg·h/mL | Cmax ([3]; male, Sprague Dawley, Study Day 1, Male, read-out: Cmax): 164 µg/mL | Tmax ([3]; male, Sprague Dawley, Study Day 14, Male): 10 h | AUC(0-t) ([3]; male, Sprague Dawley, Study Day 14, Male, read-out: AUC0-24 hr): 3220 µg·h/mL | Cmax ([3]; male, Sprague Dawley, Study Day 14, Male, read-out: Cmax): 181 µg/mL | clearance [4]: very low clearance | projected safety margin range from the dog NOAEL (dogs; assuming efficacious dose in dogs 0.91 mg/kg b.i.d. (Ctrough at EC90)): 110 × | low prostate:body weight and prostate:brain weight ratios vs. vehicle control group (dogs; male dogs, 14-day study, all dose levels): 52-62% | solubility (Solubility (statement)): low solubility | human equivalent dose (based on body surface area) (rats [5]): at least 95 mg/kg | human total daily dose equivalent (rats [5]): approximately 5700 mg | light microscopy of more than 40 organs and tissues (rats [5]): no significant Compound 1 related findings | dosage tolerated without toxic effects (rats [5]; po): up to 600 mg/kg/day | projected safety margin from the rat NOAEL (rats [6]): 130 × | NOAEL at 14 days (in vivo [7]): 600 mg/kg/day | cardiovascular or respiratory findings ([8]; oral doses up to 1000 mg/kg in the rat and 200 mg/kg in the dog): no cardiovascular or respiratory findings | adverse effects on gastrointestinal, respiratory, CNS, or cardiovascular systems ([8]; oral formulations): unlikely to cause adverse effects | organ weights and gross observations at necropsy (rats [9]): no effects on organ weights and no gross observations | MTD at 14 days [10]: > 2000 mg/kg | NOAEL at 14 days [10]: > 2000 mg/kg | AUC(0-t) ([11]; both sexes, dogs, at the NOAEL (200 mg/kg/day), read-out: average AUC0-24hr): 645 µg·h/mL | Cmax ([11]; both sexes, dogs, at the NOAEL (200 mg/kg/day), read-out: average Cmax): 75 µg/mL | Tmax ([11]; female, beagle, Study Day 1, Female): 4 h | AUC(0-t) ([11]; female, beagle, Study Day 1, Female, read-out: AUC0-24 hr): 573 µg·h/mL | Cmax ([11]; female, beagle, Study Day 1, Female, read-out: Cmax): 56 µg/mL | Tmax ([11]; female, beagle, Study Day 14, Female): 3 h | AUC(0-t) ([11]; female, beagle, Study Day 14, Female, read-out: AUC0-24 hr): 720 µg·h/mL | Cmax ([11]; female, beagle, Study Day 14, Female, read-out: Cmax): 77 µg/mL | Tmax ([11]; male, beagle, Study Day 1, Male): 3 h | AUC(0-t) ([11]; male, beagle, Study Day 1, Male, read-out: AUC0-24 hr): 691 µg·h/mL | Cmax ([11]; male, beagle, Study Day 1, Male, read-out: Cmax): 77 µg/mL | Tmax ([11]; male, beagle, Study Day 14, Male): 3 h | AUC(0-t) ([11]; male, beagle, Study Day 14, Male, read-out: AUC0-24 hr): 598 µg·h/mL | Cmax ([11]; male, beagle, Study Day 14, Male, read-out: Cmax): 72 µg/mL | clearance [12]: very low clearance | pIC50 (TP receptor): 5.00 to 6.00
